Experimental findings from patent publication US5756532A, “Aminomethyl-2 3 8 9-tetrahydro-7H-1 4-dioxino[2 3-E]-indol-8-ones and derivatives” (American Home Products Corporation, priority 1996, dated 1998) are described below.

One assay has as its system mouse locomotor activity. In words: Reduction of mouse locomotor activity (hypolocomotion). The format is in vivo, mouse (male, CF-1). The settings on record: 20 min, sc, horizontal activity counts collected 10 to 20 minutes after dosing. On the procedure:
The antipsychotic activity of the compounds of the invention was further established by a determination of the compounds' ability to reduce mouse locomotor activity according to the method of Martin and Bendensky, J. Pharmacol. Exp. Therap. 229: 706-711, 1984, in which mice (male, CF-1, Charles River, 20-30 g) were injected with vehicle or various doses of each drug and locomotor activity was measured for 30 minutes using automated infrared activity monitors (Omnitech-8×8 inch open field) located in a darkened room. ED50 's were calculated from the horizontal activity counts collected from 10 to 20 minutes after dosing using a nonlinear regression analysis with inverse prediction.
As usually defined, the ED50 is the dose at which the effect has come halfway, by size or by number of responders. Higher therefore signals a need for a large dose. The compound `O=C1Cc2c(ccc3c2O[C@@H](CNCC24CC5CC(CC(C5)C2)C4)CO3)N1` [Example 14] came in with a median effective dose (ED50) of 0.008 mg/kg.

Take `Cc1ccc(CNC[C@H]2COc3cc(C)c4c(c3O2)CC(=O)N4)cc1` [Example 28, 2-[(4-Methyl-benzylamino)-methyl]-6-methyl-2,3,8,9-tetrahydro-7H-1,4-dioxino[2,3-e]indol-8-one]: it took a dose of 0.024 mg/kg to reach the 50% effect level (ED50).

Take `Cc1ccc(CNC[C@H]2COc3ccc4c(c3O2)CC(=O)N4)cc1` [Example 7]: it took a dose of 0.005 mg/kg to reach the 50% effect level (ED50).

In turn, `O=C1Cc2c(ccc3c2O[C@H](CNCc2ccccc2)CO3)N1` [Example 15, 2-(Benzylamino-methyl)-2,3,8,9-tetrahydro-7H-4-dioxino[2,3-e]indol-8-one] returned a 50% effective dose (ED50) of 0.09 mg/kg.

The compound `O=C1Cc2c(ccc3c2O[C@@H](CNCCCc2c[nH]c4ccccc24)CO3)N1` [Example 3, 2-{[3-(Indol-3-yl)-propylamino]-methyl}-2,3,8,9-tetrahydro-7H-1,4-dioxino-[2,3-e]indol-8-one] registered an ED50 of 0.039 mg/kg.

The target in a further assay is T1, dopamine D2 receptor (Rattus norvegicus, UniProt P61169).
T1 construct: homogenized rat striatal brain tissue; from tissue; host or cells: rat striatum (homogenate)
T1 sequence (P61169 whole entry): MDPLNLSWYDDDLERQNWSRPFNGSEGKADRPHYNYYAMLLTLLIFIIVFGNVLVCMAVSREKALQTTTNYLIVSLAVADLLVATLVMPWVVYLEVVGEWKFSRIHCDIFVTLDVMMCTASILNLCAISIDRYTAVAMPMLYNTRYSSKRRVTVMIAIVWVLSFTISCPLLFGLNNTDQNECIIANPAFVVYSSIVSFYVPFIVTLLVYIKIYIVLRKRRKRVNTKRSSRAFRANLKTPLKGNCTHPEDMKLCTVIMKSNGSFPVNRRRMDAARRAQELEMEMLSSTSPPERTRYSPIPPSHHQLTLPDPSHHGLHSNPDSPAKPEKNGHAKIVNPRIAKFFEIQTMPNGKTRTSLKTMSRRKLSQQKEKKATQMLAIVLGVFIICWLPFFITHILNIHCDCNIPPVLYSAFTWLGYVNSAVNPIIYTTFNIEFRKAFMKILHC
In words: Affinity for the dopamine D2 receptor (3H-quinpirole, rat striatal brain tissue homogenate). It counts as binding. To be noted: homogenized rat striatal brain tissue. On the procedure:
Affinity for the dopamine D2 receptor was established by a modification of the standard experimental test procedure of Seemen and Schaus, European Journal of Pharmacology 203: 105-109, 1991, wherein homogenized rat striatal brain tissue is incubated with ^3 H-quinpirole and various concentrations of test compound, filtered and washed and counted in a Betaplate scintillation counter.
In general, IC50 refers to the concentration at which inhibition is half-maximal. High values mean weaker potency in that assay, low ones greater potency in that assay. Compound `O=C1Cc2c(ccc3c2O[C@@H](CNCC24CC5CC(CC(C5)C2)C4)CO3)N1` [Example 14] yielded a half-inhibitory concentration (IC50) of 0.43 nM.

`O=C1Cc2c(c(F)cc3c2O[C@@H](CNCc2ccccc2)CO3)N1` [Example 33, 2-(Benzylamino-methyl)-6-fluoro-2,3,8,9-tetrahydro-7H-1,4-dioxino[2,3-e]indol-8-one] gave an IC50 of 0.57 nM.

Compound `O=C1Cc2c(ccc3c2O[C@@H](CNCc2cccc4ccccc24)CO3)N1` [Example 18, 2-(Napthalen-1-yl-methylamino-methyl)-2,3,8,9-tetrahydro-7H-1,4-dioxono[2,3-e]indol-8-one] registered an IC50 of 0.49 nM.

As for `O=C1Cc2c(ccc3c2O[C@@H](CNCCCCc2ccccc2)CO3)N1` [Example 21, 2-(4-Phenyl-butylamino)-methyl-2,3,8,9-tetrahydro-7H-1,4-dioxino[2,3-e]indol-8-one], half-maximal inhibition (IC50) required 0.33 nM.

For `Cc1ccc(CNC[C@H]2COc3cc(C)c4c(c3O2)CC(=O)N4)cc1` [Example 28, 2-[(4-Methyl-benzylamino)-methyl]-6-methyl-2,3,8,9-tetrahydro-7H-1,4-dioxino[2,3-e]indol-8-one], the IC50 was 1.39 nM.

As to `O=C1Cc2c(c(F)cc3c2O[C@@H](CNCc2ccc(Cl)cc2)CO3)N1` [Example 40, 2-[(4-Chloro-benzylamino)-methyl]-6-fluoro-2,3,8,9-tetrahydro-7H-1,4-dioxino[2,3-e]indol-8-one], the 50% inhibitory concentration (IC50) was 0.53 nM.

`Cc1ccc(CNC[C@H]2COc3ccc4c(c3O2)CC(=O)N4)cc1` [Example 7]: the midpoint of inhibition, the IC50, lay at 0.34 nM.

`Cc1cc2c(c3c1NC(=O)C3)O[C@@H](CNCc1ccc(F)cc1)CO2` [Example 32] gave an IC50 of 2.15 nM.

Take `O=C1Nc2ccc3c(c2C1=Cc1ccc(F)cc1)O[C@@H](CNCc1ccc(F)cc1)CO3` [Example 22]: 17.7 nM corresponded to half-maximal inhibition (IC50).

For the compound `O=C1Cc2c(c(F)cc3c2O[C@@H](CNCC24CC5CC(CC(C5)C2)C4)CO3)N1` [Example 38, 2-{[(Adamantan-1-ylmethyl)-amino]-methyl}-6-fluoro-2,3,8,9-tetrahydro-7H-1,4-dioxino[2,3-e]indol-8-one], the IC50 amounted to 1.08 nM.

As for `O=C1Cc2c(ccc3c2O[C@@H](CNCCCO)CO3)N1` [Example 5, 2-[(3-Hydroxy-propylamino)-methyl]-2,3,8,9-tetrahydro-7H-1,4-dioxino[2,3-e]indol-8-one], the half-maximal inhibitory concentration (IC50) amounted to 1.42 nM.

In turn, `O=C1Cc2c(ccc3c2O[C@@H](CNCCc2cccnc2)CO3)N1` [Example 10, 2-[(2-Pyridin-3yl-ethylamino)-methyl]-2,3,8,9-tetrahydro-7H-1,4-dioxino-[2,3-e]indol-8one] gave a half-inhibitory concentration (IC50) of 3.06 nM.

As to `Cc1ccc(CNC[C@H]2COc3cc(F)c4c(c3O2)CC(=O)N4)cc1` [Example 36, 6-Fluoro-2-[(4-methyl-benzylamino)-methyl]-2,3,8,9-tetrahydro-7H-1,4-dioxino[2,3-e]indol-8-one], the half-inhibitory concentration (IC50) stood at 0.35 nM.

In turn, `O=C1Cc2c(ccc3c2O[C@H](CNCc2ccccc2)CO3)N1` [Example 15, 2-(Benzylamino-methyl)-2,3,8,9-tetrahydro-7H-4-dioxino[2,3-e]indol-8-one] registered an IC50 of 3.33 nM.

Compound `Cc1ccc(CNC[C@H]2COc3cc(Cl)c4c(c3O2)CC(=O)N4)cc1` [Example 44, 6-Chloro-2-[(4-methyl-benzylamino)-methyl]-2,3,8,9-tetrahydro-7H-1,4-dioxino[2,3-e]indol-8-one] came in with an IC50 of 1.43 nM.

For the compound `O=C1Cc2c(c(F)cc3c2O[C@@H](CNCCCCc2ccccc2)CO3)N1` [Example 42, 6-Fluoro-2-[(4-phenyl-butylamino)-methyl]-2,3,8,9-tetrahydro-7H-1,4-dioxino[2,3-e]indol-8-one], the midpoint of inhibition, the IC50, lay at 0.67 nM.

In turn, `O=C1Cc2c(c(F)cc3c2O[C@@H](CNCc2ccc(C(F)(F)F)cc2)CO3)N1` [Example 41, 6-Fluoro-2-[(4-trifluoromethyl-benzylamino)-methyl]-2,3,8,9-tetrahydro-7H-dioxino[2,3-e]indol-8-one] displayed a half-maximal inhibitory concentration (IC50) of 0.56 nM.

As to `O=C1Cc2c(ccc3c2O[C@@H](CNCc2cccc(C(F)(F)F)c2)CO3)N1` [Example 25, 2-[(3-Trifluoromethyl-benzylamino)-methyl]-2,3,8,9-tetrahydro-7H-1,4-dioxino [2,3-e]indol-8-one], half-maximal inhibition (IC50) required 1.04 nM.

In turn, `Cc1ccc(C=C2C(=O)Nc3c(F)cc4c(c32)O[C@@H](CNCc2ccc(C)cc2)CO4)cc1` [Example 35, 6-Fluoro-2-[(4-methyl-benzylamino)-methyl]-9-(4-methyl-benzylidene)-2,3.8.9-tetrahydro-7H-1,4-dioxino[2,3-e]indol-8-one] registered an IC50 of 52.1 nM.

`Cc1cc2c(c3c1NC(=O)C3)O[C@@H](CNCc1ccccc1)CO2` [Example 31, 2-(Benzylamino-methyl)-6-methyl-2,3,8,9-tetrahydro-7H-1,4-dioxino[2,3-e]indol-8-one] came in with a concentration for half-maximal inhibition (IC50) of 1.3 nM.

Consider `O=C1Cc2c(ccc3c2O[C@@H](CNCCCc2c[nH]c4ccccc24)CO3)N1` [Example 3, 2-{[3-(Indol-3-yl)-propylamino]-methyl}-2,3,8,9-tetrahydro-7H-1,4-dioxino-[2,3-e]indol-8-one], for which the IC50 was 0.14 nM.

The compound `O=C1Cc2c(ccc3c2O[C@@H](CNCCc2c[nH]c4ccccc24)CO3)N1` [Example 4] registered a concentration for half-maximal inhibition (IC50) of 1.79 nM.

In the case of `O=C1Cc2c(c(Cl)cc3c2O[C@@H](CNCc2ccc(Cl)cc2)CO3)N1` [Example 43, 6-Chloro-2-[(4-chloro-benzylamino)-methyl]-2,3,8,9-tetrahydro-7H-1,4-dioxino[2,3-e]indol-8-one], the IC50 stood at 0.98 nM.

`Cc1cc2c(c3c1NC(=O)C3)O[C@@H](CNCc1cccs1)CO2` [Example 29, 2-{[(Thiophene-2-ylmethyl)-amino]-methyl}-6-methyl-2,3,8,9-tetrahydro-7H-1,4-dioxino[2,3-e]indol-8-one] registered a 50% inhibitory concentration (IC50) of 3.3 nM.

As for `CC(=O)Nc1cccc(OCCCNC[C@H]2COc3ccc4c(c3O2)CC(=O)N4)c1` [Example 23, N-(3-{3-[(8-Oxo-2,3,8,9-tetrahydro-7H-1,4-dioxinor[2,3-e]indol-2-ylmethyl)-amino]-propoxy}-phenyl)-acetamide], half-maximal inhibition (IC50) required 0.89 nM.

The compound `CN(C)c1cccc(OCCCNC[C@H]2COc3cc(F)c4c(c3O2)CC(=O)N4)c1` [Example 37, 2-{[3-(3-Dimethylamino-phenoxy)-propylamino]-methyl}-6-fluoro-2,3,8,9-tetrahydro-7H-1,4-dioxino[2,3-e]indol-8-one] yielded an IC50 of 0.51 nM.

In turn, `O=C1Cc2c(c(F)cc3c2O[C@@H](CNCc2ccc(F)cc2)CO3)N1` [Example 34, 6-Fluoro-2-[(4-fluoro-benzylamino)-methyl]-2,3,8,9-tetrahydro-7H-1,4-dioxino[2,3-e]indol-8-one] returned a concentration for half-maximal inhibition (IC50) of 0.56 nM.

On to `O=C1Cc2c(ccc3c2O[C@@H](CNCCCOc2ccc4cccnc4c2)CO3)N1` [Example 13], for which half-maximal inhibition (IC50) was put at 1.39 nM.

`CCCCCNC[C@H]1COc2ccc3c(c2O1)CC(=O)N3` [Example 16, 2-(Pentylaminomethyl)-2,3,8,9-tetrahydro-7H-1,4-dioxino[2,3-e]indol-8-one] had a half-inhibitory concentration (IC50) of 0.45 nM.

Compound `O=C1Cc2c(ccc3c2O[C@@H](CNCc2ccc(C(F)(F)F)cc2)CO3)N1` [Example 19, 2-(4-Trifluoromethyl-benzylamino-methyl)-2,3,8,9-tetrahydro-7H-1,4-dioxino [2,3-e]indol-8-one] returned an IC50 of 0.34 nM.

In turn, `O=C1Nc2ccc3c(c2C1=O)O[C@@H](CNCc1ccccc1)CO3` [Example 26] had a half-inhibitory concentration (IC50) of 0.52 nM.

Take `O=C1Cc2c(ccc3c2O[C@@H](CNCC2CCCCC2)CO3)N1` [Example 9, 2-(Cyclohexylmethylamino-methyl)-2,3,8,9-tetrahydro-7H-1,4-dioxino[2,3-e]indol-8-one]: the half-inhibitory concentration (IC50) was 0.37 nM.

Regarding `NC[C@H]1COc2ccc3c(c2O1)CC(=O)N3` [Example 8, 2-Aminomethyl-2,3,8,9-tetrahydro-7H-1,4-dioxino[2,3-e]indol-8-one], the half-maximal inhibitory concentration (IC50) was 9.93 nM.

In the case of `O=C1CCc2c(ccc3c2O[C@@H](CNCc2ccccc2)CO3)N1` [Example 6, 2-(Benzylamino-methyl)-2,3,9,10-tetrahydro-7H-1,4-dioxino[2,3-f]quinolin-8-one], half-maximal inhibition (IC50) was put at 12.3 nM.

Compound `O=C1Cc2c(ccc3c2O[C@@H](CNCc2ccc(F)cc2)CO3)N1` [Example 20, 2-(4-Fluoro-benzylamino)-methyl-2,3,8,9-tetrahydro-7H-1,4-dioxino[2,3-e]-indol-8-one] registered a 50% inhibitory concentration (IC50) of 0.29 nM.

The compound `O=C1Cc2c(c(Cl)cc3c2O[C@@H](CNCc2ccc(F)cc2)CO3)N1` [Example 46, 6-Chloro-2-[(4-fluoro-benzylaimino)-methyl]-2,3,8,9-tetrahydro-7H-1,4-dioxino[2,3-e_]indol-8-one] returned an IC50 of 1 nM.

On to `O=C1Nc2ccc3c(c2C1=Cc1ccccc1)O[C@@H](CNCc1ccccc1)CO3` [Example 2, 2-(Benzylamino-methyl)-1-benzylidene-2,3,8,9-tetrahydro-7H-1,4-dioxino[2,3-e]indol-8-one], for which the half-maximal inhibitory concentration (IC50) was 2.8 nM.

In the case of `O=C1Cc2c(c(Cl)cc3c2O[C@@H](CNCc2ccccc2)CO3)N1` [Example 45, 2-(Benzylamino)-methyl-6-chloro-2,3,8,9-tetrahydro-7H-1,4-dioxino[2,3-e]indol-8-one], the midpoint of inhibition, the IC50, lay at 0.97 nM.
